These are literature values, as cited in patent US20190216738A1, “PIRFENIDONE-CONTAINING TABLET AND CAPSULE FORMULATION” (Laurus Labs Ltd, priority 2018, published 2019).

Regarding `Cc1ccc(=O)n(-c2ccccc2)c1` [Pirfenidone], the solubility result (1.0 N HCl, water and 1.0 N NaOH) is given as “sparingly soluble”. Further, for the setting “water, 25° C., pH independent”, the “dissolution in water (solubility)” value was 19 mg/mL.
